Experimental data from PMC9247345 (Journal of medicinal chemistry, 2011).
Where two headings read alike, the source gives them in different places. One block for each compound: values may come before it.

Legend:
[1] = system: P. falciparum TM90-C2B (chloroquine, mefloquine, pyrimethamine and atovaquone resistant); assay: in vitro antimalarial activity against TM90-C2B; format: cell-based; settings: for antimalarial activity in words / fold decrease in antimalarial activity: TM90-C2B; for fold more potent against TM90-C2B: compared to compound 27; for fold decrease in antimalarial activity: compared to compound 5; for EC50: Plasmodium falciparum
[2] = system: P. falciparum W2 (chloroquine and pyrimethamine resistant); assay: in vitro antimalarial activity against W2; format: cell-based; settings: for antimalarial activity in words: W2; for times less active against W2: in comparison to reference compound 17; for fold decrease in antimalarial activity: W2, compared to compound 5; for EC50: Plasmodium falciparum
[3] = system: P. berghei; settings: rodent malaria models; cited from earlier work

Structure (SMILES): CCCCc1cc2c(=O)c(-c3c(C)noc3C)c(C)[nH]c2cc1OCCOc1ccccc1 [Compound 43]
antimalarial activity in words [1]: approximately five times less potent

Structure (SMILES): CCCCc1cc2c(=O)c(-c3cccnc3)c(C)[nH]c2cc1OCCOc1ccccc1 [Compound 33]
antimalarial activity in words [2]: moderate activity in low μM or high nM range
antimalarial activity in words [1]: moderate activity in low μM or high nM range

Structure (SMILES): CCc1c(C)[nH]c2cc(OCCCN3CCN(c4ccccc4)CC3)c(Cl)cc2c1=O [Compound 26]
times less active against W2 [2]: approximately four-fold less active

Structure (SMILES): CCc1c(C)[nH]c2cc(OCCOc3ccccc3)c(OC)cc2c1=O [Compound 19]
fold more potent against TM90-C2B [1]: approximately 3 fold

Structure (SMILES): CCCCc1cc2c(=O)cc(C)[nH]c2cc1OCCOc1ccccc1 [Compound 15]
fold decrease in antimalarial activity [2]: 4000 fold
fold decrease in antimalarial activity [1]: 4 fold

Structure (SMILES): CCCCc1cc2c(=O)c(-c3ccncc3)c(C)[nH]c2cc1OCCOc1ccccc1 [Compound 32]
antimalarial activity in words [2]: moderate activity in low μM or high nM range
antimalarial activity in words [1]: moderate activity in low μM or high nM range

Structure (SMILES): CCCCc1cc2c(=O)c(C(=O)OC)c[nH]c2cc1OCCOc1ccccc1 [Compound 5, reference compound]
fold stronger inhibition of W2 than TM90-C2B ([2]; W2 versus TM90-C2B): approximately 220 fold
ED50, causal prophylactic and blood schizonticidal activity [3]: 0.05 mg/kg

Structure (SMILES): COC(=O)c1c[nH]c2cc(OC)c(Cl)cc2c1=O [Compound 14]
fold decrease in antimalarial activity [2]: ≥ 70 fold
fold decrease in antimalarial activity [1]: ≥ 70 fold

Structure (SMILES): CCc1c(C)[nH]c2cc(OCOC)c(Cl)cc2c1=O [Compound 20]
times less active against W2 [2]: approximately four-fold less active

Structure (SMILES): CCc1c(C)[nH]c2cc(OCCOc3ccccc3)c(C)cc2c1=O [Compound 18]
fold more potent against TM90-C2B [1]: approximately 3 fold

Structure (SMILES): C[C@H]1[C@@H](O)O[C@@H]2O[C@@]3(C)CC[C@H]4[C@H](C)CC[C@@H]1[C@@]24OO3 [DHA, Dihydroartemisinin, reference compound]
EC50 ([2]; W2, read-out: EC50 W2): 1.8 nM
EC50 ([1]; TM90, read-out: EC50 TM90-C2B, Table 1, PEQ analogs): 0.9 nM
EC50 ([1]; TM90, read-out: EC50 TM90-C2B, Table 2, 3-aryl PEQs): 0.9 nM

EC50 ([2]; W2, read-out: EC50 W2, Table 1, PEQ analogs): 0.53 nM
EC50 ([2]; W2, read-out: EC50 W2, Table 2, 3-aryl PEQs): 0.53 nM
Structure (SMILES): O=C1C(O)=C([C@H]2CC[C@H](c3ccc(Cl)cc3)CC2)C(=O)c2ccccc21 [ATO, atovaquone, reference compound]
